Some results are limits rather than exact numbers.

Here are results for four molecules from US9328369B2, “Process for production of useful substance, and surfactant for use in the process” (priority 2009, dated 2016).

What all share (assay type): cell-based
The subject of one test is Shewanella putrefaciens. Put plainly: Production by secretion in microbial culture system, Shewanella (Table 6). The conditions noted are these: surfactant 1 wt %; for Dried cell density: after 48 hours culturing; for Quantitative value of produced recombinant protein: supernatant, protein band around 45 kDa, SDS-PAGE. As for the experimental part:
An overnight culture solution (10 ml) of Shewanella putrefaciens was prepared and inoculated in 1 L of a culture solution (10 g of polypeptone (Nihon Pharmaceutical Co., Ltd.), 2 g of yeast extract (Nihon Pharmaceutical Co., Ltd.), 0.5 g of magnesium sulfate heptahydrate, 750 mL of Seawater (Daigo)) and was shake-cultured at 30° C. for 5 hours. In this manner a pre-culture solution was prepared. The pre-culture solution was inoculated in 10 L of a culture solution (200 g of polypeptone (Nihon Pharmaceutical Co., Ltd.), 40 g of yeast extract (Nihon Pharmaceutical Co., Ltd.), 10 g of magnesium sulfate heptahydrate, 7.5 L of Seawater (Daigo)). Culturing thereof was initiated with use of a microbial culture system (ABLE Corporation), while the pH value and the temperature were maintained at 7.3 and 30° C. After 48 hours from the initiation of culturing, the culture solution was recovered and centrifuged. The whole protein of the obtained supernatant fragment was analyzed by SDS-PAGE and the protein band around 45 kDa was quantified.
The dried cell density when the culturing is terminated was determined by the following processes (1) to (5):
The dried cell density was determined by assigning the measuring results in the process (5) and the process (1) and the volume (L) of the culture solution used in the process (2) to the following formula: Dried cell density (g/L)=([measuring result in process (5)]−[measuring result in process (1)])/0.1.
The same processes as in Comparative Example 5 were carried out except that, after culturing in the microbial culture system was initiated, the surfactant A-14 was added to the culture solution in an amount of 1% by weight on the basis of the weight of the culture solution.
The same processes as in Comparative Example 5 were carried out except that, after culturing in the microbial culture system was initiated, the surfactant A-7 was added to the culture solution in an amount of 1% by weight on the basis of the weight of the culture solution.

A further test relates to Escherichia coli(δ). Put plainly: Production by secretion in microbial culture system, cellulase expressing strain (Table 5). The conditions noted are these: SDS-PAGE.
In the next test the test system is Escherichia coli (α). Put plainly: Screening of secretion efficiency, alkaline phosphatase expressing strain. The note with it: surfactant 1 wt %; 37° C., 1 hour; ELISA, anti-His-tag antibody. The text has this: An alkaline phosphatase (phoA) gene of an Escherichia coli strain W3110 was amplified by the PCR method using primers 1 and 2 (Table 4). After being treated with restriction enzymes NdeI and BamHI, a PCR fragment was bound with an NdeI restriction enzyme site and with a BamHI restriction enzyme site of a pET-22b plasmid (product of Novagen). Then, the plasmid was transformed into an AG1 (DE3) Escherichia coli strain formed by transforming an Escherichia coli strain AG1 (product of TOYOBO Co., LTD.) with use of a λDE3 Lysogenization Kit (product of Novagen). In this manner, an alkaline phosphatase expressing strain (a) was formed.
A pdxA gene of an Escherichia coli strain W3110 was amplified by the PCR method using primers 5 and 6 (Table 4). After being treated with restriction enzymes NdeI and BamHI, a PCR fragment was bound to an NdeI restriction enzyme site and a BamHI restriction enzyme site of a pET-22b plasmid (product of Novagen). Then, the plasmid was transformed into an AG1 (DE3) Escherichia coli strain to form a PdxA expressing strain (γ).
In this manner, culture solutions were prepared.
(2) The strains were collected using a centrifuge (4,000 G, 4° C., 15 minutes). Each of the collected Escherichia coli strains was resuspended in 1 mL of a TB culture solution (product of Difco) and chloramphenicol (30 mg/L) and IPTG (100 μM) were added thereto. Shake culture at 37° C. for 3 hours induced expression of phoA, torA, and pdxA.
(3) Subsequently, harvesting using a centrifuge was carried out again (4,000 G, 4° C., 15 minutes). Each of the collected Escherichia coli strains was resuspended in 2.5 mL of a Tris-NaCl buffer solution (50 mM Tris (pH 7.5), 100 mM NaCl). The resulting solution was divided into 25-μL portions at a time to be mixed with 25 μL of a Tris-NaCl buffer solution.
(4) Then, the solution was allowed to stand at 37° C. for 1 hour. The supernatant solution was collected and diluted in a Tris-NaCl buffer solution to a proper concentration. Here, the quantification of the recombinant protein in the resulting solution was carried out by ELISA assay with use of an anti-His-tag antibody. The sample prior to the centrifugation in the process (3) was treated with ultrasonic waves (200 W, 10 minutes) and the quantification of the recombinant protein therein was similarly carried out by ELISA assay with use of an anti-His-tag antibody. The ratio of lysed bacteria was obtained with use of Escherichia coli (γ), and the secretion efficiencies of the recombinant proteins of Escherichia coli (α) and (β) were calculated by using the following formula. […] Secretion efficiency (%)=100×{(X/Y)−Z}.
In the formula, “X” represents the amount of the recombinant protein in the culture solution after removal of bacterial cells by centrifugation in the case of using Escherichia coli (α) or (β).
“Y” represents the amount of the whole recombinant protein in the culture solution in the case of using Escherichia coli (α) or (β).
“Z” represents the ratio of lysed bacteria obtained with use of Escherichia coli (γ), which is determined by the following formula: Z=Z1/Z2.
In the formula, “Z1” represents the amount of the recombinant protein in the culture solution which remains after removal of bacterial cells by centrifugation in the case of using Escherichia coli (γ).
“Z2” represents the amount of the whole recombinant protein in the culture solution in the case of using Escherichia coli (γ).
Escherichia coli (α) and (β) were each cultured in the same manner as in the above case except that polyoxyethylene (3 mol) tridecyl ether sodium acetate as the surfactant (A) was added right after the resuspension of the Escherichia coli in the buffer solution in the process (3) of A-0, in an amount of 1% by weight on the basis of the weight of the suspension of the bacterium. The secretion efficiency was calculated according to the above-mentioned definition.
For orientation: An ELISA detects its analyte on a solid surface through an enzyme-linked reagent.

Setting [1] is: Examples 2-11, surfactant 1 wt %, supernatant of culture solution.

As for Sodium cocaminopropionate [A-7], the “Dried cell density” value in the test on Shewanella putrefaciens was determined as 2.32 g/L. For the same molecule, the entries for the “Quantitative value of produced recombinant protein” value (“Quantitative value” below) in the test with Shewanella putrefaciens and with Escherichia coli(δ) (setting [1]) were 0.04 g/L and 2.24 g/L, respectively. Further, the “Secretion efficiency (%) Escherichia coli (α)” value with Escherichia coli (α) is listed as 85.0%.

Regarding “Polyoxyethylene(3 mol)tridecyl ether sodium acetate [A-1]”, the “Quantitative value” value in the test with Escherichia coli(δ) (setting [1]) was 1.01 g/L. The “Secretion efficiency (%) Escherichia coli (α)” value in the test on Escherichia coli (α) was determined as 100.0%.

Consider `CCCCCCCCCCCCCCCC[N+](C)(C)C.[Cl-]` [A-14, Cetyl trimethyl ammonium chloride], for which, in the test on Shewanella putrefaciens, the “Dried cell density” value amounted to 0.23 g/L and the “Quantitative value” value was less than 0.01 g/L. The “Secretion efficiency (%) Escherichia coli (α)” value in the test with Escherichia coli (α) was found to be 37.8%.

Take “Cured palm oil fatty acid amidopropyl dimethyl aminoacetate betaine [A-6]”: the “Quantitative value” value in the test on Escherichia coli(δ) (Example 13, surfactant 0.1 wt %, supernatant) was determined as 1.82 g/L; with Escherichia coli(δ) (Example 14, surfactant 5 wt %, supernatant), 1.53 g/L; in the test with Escherichia coli(δ) (setting [1]), 2.35 g/L. Further, in the test on Escherichia coli (α), the “Secretion efficiency (%) Escherichia coli (α)” value came to 87.6%.
